In ChEMBL document CHEMBL1140804, “Design, synthesis and evaluation of trifluoromethane sulfonamide derivatives as new potent and selective peroxisome proliferator-activated receptor alpha agonists” (Bioorg Med Chem Lett, 2008):

biological target: T1, Peroxisome proliferator-activated receptor alpha (Homo sapiens, UniProt Q07869)
T1 sequence (Q07869 whole entry): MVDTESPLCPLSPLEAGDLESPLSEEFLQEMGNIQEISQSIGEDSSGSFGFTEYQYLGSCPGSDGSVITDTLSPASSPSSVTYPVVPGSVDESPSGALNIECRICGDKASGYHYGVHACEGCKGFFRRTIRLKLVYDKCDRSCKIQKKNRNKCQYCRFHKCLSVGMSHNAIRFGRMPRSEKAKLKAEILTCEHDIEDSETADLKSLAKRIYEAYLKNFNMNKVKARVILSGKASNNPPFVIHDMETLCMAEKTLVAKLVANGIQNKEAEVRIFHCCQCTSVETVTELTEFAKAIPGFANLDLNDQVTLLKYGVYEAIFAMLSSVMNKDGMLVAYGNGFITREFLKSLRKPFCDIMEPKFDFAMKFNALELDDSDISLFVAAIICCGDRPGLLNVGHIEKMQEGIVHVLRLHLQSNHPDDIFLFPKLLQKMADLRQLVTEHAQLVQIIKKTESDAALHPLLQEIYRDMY
Description: Agonist activity at human PPARalpha assessed as receptor activation by cell based assay

| EC50 | Compound |
| --- | --- |
| 3000 nM | COCc1nc(-c2ccc(C(=O)NCc3ccc(OC(C)(C)C(=O)O)cc3)cc2)no1 |
| 2800 nM | CC(C)(Oc1ccc(CNC(=O)Cc2ccc(-c3ccc(Cl)cc3)cc2)cc1)C(=O)O |
| 80 nM | Cc1nc(-c2ccc(C(F)(F)F)cc2)sc1C(=O)NCc1ccc(CNS(=O)(=O)C(F)(F)F)cc1 |
| 60 nM | Cc1nc(-c2ccc(C(F)(F)F)cc2)sc1C(=O)NCc1ccc(NS(C)(=O)=O)cc1 |

| Compound | EC50 |
| --- | --- |
| Cc1nc(-c2ccc(C(F)(F)F)cc2)sc1C(=O)NCc1ccc(NS(=O)(=O)C(F)(F)F)cc1 | 0.3 nM |

biological target: T2, Peroxisome proliferator-activated receptor gamma (Mus musculus, UniProt P37238)
T2 sequence (P37238 whole entry): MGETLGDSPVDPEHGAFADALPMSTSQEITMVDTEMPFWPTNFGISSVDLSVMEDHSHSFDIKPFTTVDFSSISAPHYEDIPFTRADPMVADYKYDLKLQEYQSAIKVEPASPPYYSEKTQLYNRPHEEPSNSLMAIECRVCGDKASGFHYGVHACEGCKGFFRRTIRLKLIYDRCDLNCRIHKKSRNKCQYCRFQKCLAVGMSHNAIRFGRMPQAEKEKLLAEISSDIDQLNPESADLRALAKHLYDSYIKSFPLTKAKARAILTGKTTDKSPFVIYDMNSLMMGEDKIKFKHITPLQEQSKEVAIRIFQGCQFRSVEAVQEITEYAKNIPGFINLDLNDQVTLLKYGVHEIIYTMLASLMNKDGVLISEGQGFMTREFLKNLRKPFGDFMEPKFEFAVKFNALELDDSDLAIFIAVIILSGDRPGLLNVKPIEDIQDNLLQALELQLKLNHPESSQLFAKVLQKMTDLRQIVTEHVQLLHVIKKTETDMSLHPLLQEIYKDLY
Description: Agonist activity at mouse PPARgamma assessed as receptor activation by cell based assay

| EC50 | Compound |
| --- | --- |
| 9700 nM | Cc1nc(-c2ccc(C(F)(F)F)cc2)sc1C(=O)NCc1ccc(OC(C)(C)C(=O)O)cc1 [GW590735] |
| > 10000 nM | Cc1nc(-c2ccc(C(F)(F)F)cc2)sc1C(=O)NCc1ccc(CNS(=O)(=O)C(F)(F)F)cc1 |
| > 10000 nM | Cc1nc(-c2ccc(C(F)(F)F)cc2)sc1C(=O)NCc1ccc(NS(C)(=O)=O)cc1 |

| Compound | EC50 |
| --- | --- |
| Cc1nc(-c2ccc(C(F)(F)F)cc2)sc1C(=O)NCc1ccc(NS(=O)(=O)C(F)(F)F)cc1 | 600 nM |

biological target: T3, Peroxisome proliferator-activated receptor alpha (Mus musculus, UniProt P23204)
T3 sequence (P23204 whole entry): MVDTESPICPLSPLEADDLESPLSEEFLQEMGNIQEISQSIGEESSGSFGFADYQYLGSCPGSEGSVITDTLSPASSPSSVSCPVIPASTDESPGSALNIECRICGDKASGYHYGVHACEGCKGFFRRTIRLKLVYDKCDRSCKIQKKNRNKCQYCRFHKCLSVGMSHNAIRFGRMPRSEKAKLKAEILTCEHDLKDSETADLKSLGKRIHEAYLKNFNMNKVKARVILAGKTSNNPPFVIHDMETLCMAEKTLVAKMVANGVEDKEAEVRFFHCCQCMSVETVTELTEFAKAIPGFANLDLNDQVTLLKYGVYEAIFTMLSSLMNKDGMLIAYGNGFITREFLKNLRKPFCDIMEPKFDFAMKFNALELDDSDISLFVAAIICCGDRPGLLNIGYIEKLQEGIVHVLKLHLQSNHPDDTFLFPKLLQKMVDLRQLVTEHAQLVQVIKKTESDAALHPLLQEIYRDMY
Description: (§1) Agonist activity at mouse PPARalpha assessed as receptor activation by cell based assay

| EC50 | Compound |
| --- | --- |
| 20 nM | Cc1nc(-c2ccc(C(F)(F)F)cc2)sc1C(=O)NCc1ccc(OC(C)(C)C(=O)O)cc1 [GW590735] |
| > 25000 nM | COCc1nc(-c2ccc(C(=O)NCc3ccc(OC(C)(C)C(=O)O)cc3)cc2)no1 |
| > 25000 nM | CC(C)(Oc1ccc(CNC(=O)Cc2ccc(-c3ccc(Cl)cc3)cc2)cc1)C(=O)O |
| > 10000 nM | Cc1nc(-c2ccc(C(F)(F)F)cc2)sc1C(=O)NCc1ccc(CNS(=O)(=O)C(F)(F)F)cc1 |
| 800 nM | Cc1nc(-c2ccc(C(F)(F)F)cc2)sc1C(=O)NCc1ccc(NS(C)(=O)=O)cc1 |

| Compound | EC50 |
| --- | --- |
| Cc1nc(-c2ccc(C(F)(F)F)cc2)sc1C(=O)NCc1ccc(NS(=O)(=O)C(F)(F)F)cc1 | 2 nM |

biological target: T4, Peroxisome proliferator-activated receptor alpha (Mus musculus) (UniProt P23204)
T4 sequence (whole entry): T3 sequence (P23204 whole entry)
Description: as §1

| Activity | Compound |
| --- | --- |
| 103% | Cc1nc(-c2ccc(C(F)(F)F)cc2)sc1C(=O)NCc1ccc(OC(C)(C)C(=O)O)cc1 [GW590735] |
| 78% | Cc1nc(-c2ccc(C(F)(F)F)cc2)sc1C(=O)NCc1ccc(NS(C)(=O)=O)cc1 |

| Compound | Activity |
| --- | --- |
| Cc1nc(-c2ccc(C(F)(F)F)cc2)sc1C(=O)NCc1ccc(NS(=O)(=O)C(F)(F)F)cc1 | 98% |

biological target: T5, Peroxisome proliferator-activated receptor gamma (Homo sapiens, UniProt P37231)
T5 sequence (P37231 whole entry): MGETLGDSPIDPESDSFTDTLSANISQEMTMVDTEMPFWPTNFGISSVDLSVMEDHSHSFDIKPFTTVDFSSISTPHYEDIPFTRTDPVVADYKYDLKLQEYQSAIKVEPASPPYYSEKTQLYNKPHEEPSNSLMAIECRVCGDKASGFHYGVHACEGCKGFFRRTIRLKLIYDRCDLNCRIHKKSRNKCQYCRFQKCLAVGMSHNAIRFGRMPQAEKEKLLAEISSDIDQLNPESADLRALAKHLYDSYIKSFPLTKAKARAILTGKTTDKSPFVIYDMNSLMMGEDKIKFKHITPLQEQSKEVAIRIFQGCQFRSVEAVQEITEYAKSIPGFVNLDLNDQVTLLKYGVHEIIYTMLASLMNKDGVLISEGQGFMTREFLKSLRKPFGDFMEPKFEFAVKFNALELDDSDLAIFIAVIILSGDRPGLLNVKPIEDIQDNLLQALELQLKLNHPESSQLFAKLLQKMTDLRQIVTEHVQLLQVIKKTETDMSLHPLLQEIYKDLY
Description: Agonist activity at human PPARgamma assessed as receptor activation by cell based assay

| EC50 | Compound |
| --- | --- |
| 9700 nM | Cc1nc(-c2ccc(C(F)(F)F)cc2)sc1C(=O)NCc1ccc(OC(C)(C)C(=O)O)cc1 [GW590735] |
| > 10000 nM | Cc1nc(-c2ccc(C(F)(F)F)cc2)sc1C(=O)NCc1ccc(CNS(=O)(=O)C(F)(F)F)cc1 |
| > 10000 nM | Cc1nc(-c2ccc(C(F)(F)F)cc2)sc1C(=O)NCc1ccc(NS(C)(=O)=O)cc1 |

| Compound | EC50 |
| --- | --- |
| Cc1nc(-c2ccc(C(F)(F)F)cc2)sc1C(=O)NCc1ccc(NS(=O)(=O)C(F)(F)F)cc1 | 500 nM |

biological target: T6, Peroxisome proliferator-activated receptor delta (Mus musculus, UniProt P35396)
T6 sequence (P35396 whole entry): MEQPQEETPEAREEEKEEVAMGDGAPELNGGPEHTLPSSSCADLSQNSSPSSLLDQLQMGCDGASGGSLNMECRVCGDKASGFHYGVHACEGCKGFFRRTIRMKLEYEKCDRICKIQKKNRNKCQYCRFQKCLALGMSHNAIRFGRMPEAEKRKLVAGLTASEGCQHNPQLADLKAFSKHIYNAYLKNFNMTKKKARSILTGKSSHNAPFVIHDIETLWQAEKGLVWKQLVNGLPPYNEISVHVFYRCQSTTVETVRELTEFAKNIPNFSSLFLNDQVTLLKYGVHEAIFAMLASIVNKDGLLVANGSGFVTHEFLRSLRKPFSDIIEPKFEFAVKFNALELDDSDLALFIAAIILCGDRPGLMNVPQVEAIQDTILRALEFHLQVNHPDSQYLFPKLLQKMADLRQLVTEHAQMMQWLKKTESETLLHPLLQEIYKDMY
Description: Agonist activity at mouse PPARdelta assessed as receptor activation by cell based assay

| EC50 | Compound |
| --- | --- |
| 1700 nM | Cc1nc(-c2ccc(C(F)(F)F)cc2)sc1C(=O)NCc1ccc(OC(C)(C)C(=O)O)cc1 [GW590735] |
| > 10000 nM | Cc1nc(-c2ccc(C(F)(F)F)cc2)sc1C(=O)NCc1ccc(CNS(=O)(=O)C(F)(F)F)cc1 |
| > 10000 nM | Cc1nc(-c2ccc(C(F)(F)F)cc2)sc1C(=O)NCc1ccc(NS(C)(=O)=O)cc1 |

| Compound | EC50 |
| --- | --- |
| Cc1nc(-c2ccc(C(F)(F)F)cc2)sc1C(=O)NCc1ccc(NS(=O)(=O)C(F)(F)F)cc1 | 300 nM |

biological target: T7, Peroxisome proliferator-activated receptor delta (Homo sapiens, UniProt Q03181)
T7 sequence (Q03181 whole entry): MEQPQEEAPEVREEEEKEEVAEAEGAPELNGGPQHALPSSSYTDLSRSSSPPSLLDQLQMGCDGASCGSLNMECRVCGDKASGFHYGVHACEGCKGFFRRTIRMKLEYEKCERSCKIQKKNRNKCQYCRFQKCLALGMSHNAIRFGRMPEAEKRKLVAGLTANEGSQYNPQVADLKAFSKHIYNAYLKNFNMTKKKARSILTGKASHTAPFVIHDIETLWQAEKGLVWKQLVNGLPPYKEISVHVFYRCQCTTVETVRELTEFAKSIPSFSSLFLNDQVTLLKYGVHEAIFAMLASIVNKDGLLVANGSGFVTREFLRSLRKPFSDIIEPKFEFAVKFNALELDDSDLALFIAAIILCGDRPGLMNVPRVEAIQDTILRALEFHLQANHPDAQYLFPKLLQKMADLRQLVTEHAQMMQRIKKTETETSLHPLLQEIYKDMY
Description: Agonist activity at human PPARdelta assessed as receptor activation by cell based assay

| EC50 | Compound |
| --- | --- |
| > 10000 nM | Cc1nc(-c2ccc(C(F)(F)F)cc2)sc1C(=O)NCc1ccc(CNS(=O)(=O)C(F)(F)F)cc1 |
| > 10000 nM | Cc1nc(-c2ccc(C(F)(F)F)cc2)sc1C(=O)NCc1ccc(NS(C)(=O)=O)cc1 |

| Compound | EC50 |
| --- | --- |
| Cc1nc(-c2ccc(C(F)(F)F)cc2)sc1C(=O)NCc1ccc(NS(=O)(=O)C(F)(F)F)cc1 | 400 nM |
